Source: PubChem BioAssay AID2060618 (Molecular Pharmacology Branch, DTP, NCI, 2025)
Where “and” joins values, the source holds several entries; their conditions need not be identical. Equal entries are not always repeated.

System: 454973-116-R2-J3-PDC spheroids, percent test/control viability
Assay: Anticancer human tumor 454973-116-R2-J3-PDC patient-derived pancreatic carcinoma cell line growth inhibition [CLK]
Details: spheroids with HUVEC and MSC; for viability, T/C: stronger effect = lower value; active means viability on the fitted dose curve at most 10% of control; inactive means the rest
Procedure, shortened: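 Patient-derived tumor cells grown as complex spheroids with HUVEC endothelial cells and mesenchymal stem cells, treated with drug combinations. Concentrations descend in half-log steps from near clinical Cmax, or from 10 microM if Cmax unknown.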

[1] = curve of first compound, second compound 0.0316 µM
[2] = curve of first compound, second compound 0.1 µM
[3] = curve of first compound, second compound 0.316 µM
[4] = curve of first compound, second compound 1 µM
[5] = curve of first compound, second compound 3.16 µM
[6] = curve of first compound, second compound 10 µM
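Further: spheroids exposed to compounds for 7 days before readout.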

CC(C)CC(NC(=O)C(Cc1ccccc1)NC(=O)c1cnccn1)B(O)O (stereo unspecified) + CN1CCN(c2cc(C(=O)Nc3cc4cc(-c5cnn(C)c5)ccc4cn3)ccn2)CC1
active: viability, T/C (second compound 0.0316 µM, first compound 0.00949 µM) 0.27% | viability, T/C (second compound 0.0316 µM, first compound 0.03 µM) 0.3% | viability, T/C (second compound 0.0316 µM, first compound 0.0949 µM) 0.17% | viability, T/C (second compound 0.0316 µM, first compound 0.3 µM) 0.14% | viability, T/C (second compound 0.1 µM, first compound 0.00949 µM) 0.41% | viability, T/C (second compound 0.1 µM, first compound 0.03 µM) 0.19% | viability, T/C (second compound 0.1 µM, first compound 0.0949 µM) 0.16% | viability, T/C (second compound 0.1 µM, first compound 0.3 µM) 0.14% | viability, T/C (second compound 0.316 µM, first compound 0.000949 µM) 2.21% | viability, T/C (second compound 0.316 µM, first compound 0.003 µM) 0.7% | viability, T/C (second compound 0.316 µM, first compound 0.00949 µM) 1.43% | viability, T/C (second compound 0.316 µM, first compound 0.03 µM) 0.12% | viability, T/C (second compound 0.316 µM, first compound 0.0949 µM) 0.11% | viability, T/C (second compound 0.316 µM, first compound 0.3 µM) 0.09% | viability, T/C (second compound 1 µM, first compound 0.000949 µM) 0.12% | viability, T/C (second compound 1 µM, first compound 0.003 µM) 0.19% | viability, T/C (second compound 1 µM, first compound 0.00949 µM) 0.09% | viability, T/C (second compound 1 µM, first compound 0.03 µM) 0.05% | viability, T/C (second compound 1 µM, first compound 0.0949 µM) 0.07% | viability, T/C (second compound 1 µM, first compound 0.3 µM) 0.07% | viability, T/C (second compound 3.16 µM, first compound 0.000949 µM) 0.16% | viability, T/C (second compound 3.16 µM, first compound 0.003 µM) 1.02% | viability, T/C (second compound 3.16 µM, first compound 0.00949 µM) 0.07% | viability, T/C (second compound 3.16 µM, first compound 0.03 µM) 0.05% | viability, T/C (second compound 3.16 µM, first compound 0.0949 µM) 0.6% | viability, T/C (second compound 3.16 µM, first compound 0.3 µM) 0.79% | viability, T/C (second compound 10 µM, first compound 0.000949 µM) 0.09% | viability, T/C (second compound 10 µM, first compound 0.003 µM) 0.13% | viability, T/C (second compound 10 µM, first compound 0.00949 µM) 0.88% | viability, T/C (second compound 10 µM, first compound 0.03 µM) 0.09% | viability, T/C (second compound 10 µM, first compound 0.0949 µM) 0.16% | viability, T/C (second compound 10 µM, first compound 0.3 µM) 0.17%
inactive: viability, T/C (second compound 0.0316 µM, first compound 0.000949 µM) 94.4% | viability, T/C (second compound 0.0316 µM, first compound 0.003 µM) 54.7% | viability, T/C (second compound 0.1 µM, first compound 0.000949 µM) 73.7% | viability, T/C (second compound 0.1 µM, first compound 0.003 µM) 14.8%
< 0.000949 µM: IC50 [3] | IC50 [4] | IC50 [5] | IC50 [6]
0.0015 µM: IC50 [2]
0.00331 µM: IC50 [1]

O=c1[nH]cc(F)c(=O)[nH]1
1.7 µM and 0.881 µM: IC50 (curve of compound)
inactive: viability, T/C (compound 0.0316 µM) 115% and 108% | viability, T/C (compound 0.1 µM) 98.1% and 101% | viability, T/C (compound 0.316 µM) 95.8% and 103% | viability, T/C (compound 1 µM) 64.2% and 43.4% | viability, T/C (compound 3.16 µM) 30.3% and 31.5% | viability, T/C (compound 10 µM) 35.5% and 36.6%

COC1C=CCC(C)C(C)S(=O)(=O)NC(=O)c2ccc3c(c2)N(CC2CCC21)CC1(CCCc2cc(Cl)ccc21)CO3 (stereo unspecified) + CNC(=O)c1ccc(Nc2nc(OC3CCCC3)c3c(-c4ccc5nc(C)oc5c4)c[nH]c3n2)c(OC)c1
4.57 µM: IC50 [2]
inactive: viability, T/C (second compound 0.0316 µM, first compound 0.0316 µM) 99.4% | viability, T/C (second compound 0.0316 µM, first compound 0.1 µM) 104% | viability, T/C (second compound 0.0316 µM, first compound 0.316 µM) 93.9% | viability, T/C (second compound 0.0316 µM, first compound 1 µM) 95% | viability, T/C (second compound 0.0316 µM, first compound 3.16 µM) 86.8% | viability, T/C (second compound 0.1 µM, first compound 0.0316 µM) 91.8% | viability, T/C (second compound 0.1 µM, first compound 0.1 µM) 98.8% | viability, T/C (second compound 0.1 µM, first compound 0.316 µM) 92.4% | viability, T/C (second compound 0.1 µM, first compound 1 µM) 84.3% | viability, T/C (second compound 0.1 µM, first compound 3.16 µM) 70.9% | viability, T/C (second compound 0.316 µM, first compound 0.0316 µM) 48.2% | viability, T/C (second compound 0.316 µM, first compound 0.1 µM) 53.7% | viability, T/C (second compound 0.316 µM, first compound 0.316 µM) 42% | viability, T/C (second compound 0.316 µM, first compound 1 µM) 46.1% | viability, T/C (second compound 0.316 µM, first compound 3.16 µM) 46.3% | viability, T/C (second compound 0.316 µM, first compound 10 µM) 11.5% | viability, T/C (second compound 1 µM, first compound 0.0316 µM) 30.2% | viability, T/C (second compound 1 µM, first compound 0.1 µM) 23.3% | viability, T/C (second compound 1 µM, first compound 0.316 µM) 14.2% | viability, T/C (second compound 1 µM, first compound 1 µM) 14.4% | viability, T/C (second compound 1 µM, first compound 3.16 µM) 17.6% | viability, T/C (second compound 1 µM, first compound 10 µM) 14.9% | viability, T/C (second compound 3.16 µM, first compound 0.0316 µM) 24.1% | viability, T/C (second compound 3.16 µM, first compound 0.1 µM) 17.4% | viability, T/C (second compound 3.16 µM, first compound 0.316 µM) 11.2% | viability, T/C (second compound 3.16 µM, first compound 1 µM) 11.9% | viability, T/C (second compound 3.16 µM, first compound 3.16 µM) 13.9% | viability, T/C (second compound 3.16 µM, first compound 10 µM) 11.8% | viability, T/C (second compound 10 µM, first compound 0.0316 µM) 23.7% | viability, T/C (second compound 10 µM, first compound 0.1 µM) 21.5% | viability, T/C (second compound 10 µM, first compound 0.316 µM) 12.1% | viability, T/C (second compound 10 µM, first compound 1 µM) 9.9%
active: viability, T/C (second compound 0.0316 µM, first compound 10 µM) 6.26% | viability, T/C (second compound 0.1 µM, first compound 10 µM) 8.61% | viability, T/C (second compound 10 µM, first compound 3.16 µM) 8.86% | viability, T/C (second compound 10 µM, first compound 10 µM) 9.25%
5.34 µM: IC50 [1]
< 0.0316 µM: IC50 [3] | IC50 [4] | IC50 [5] | IC50 [6]
